Test results reported in patent US6749832B2, “Labelled ascorbic acid derivatives” (Amersham PLC, priority 1999, dated 2004).

Legend:
[1] = test system: MC3T3-E1 murine pre-osteoblast cells; test: Standard cell uptake assay: competition for uptake of ^14C-ascorbic acid; format: cell-based; details: for IC50: Mus musculus, competition with ^14C-ascorbic acid uptake into MC3T3-E1 cells; for Competition: competition with 125 μM ^14C-ascorbic acid for uptake into MC3T3-E1 cells, 60 min
Method: Unlabelled ascorbic acid derivatives of the present invention have been tested for their ability to compete for uptake of ^14C-ascorbic acid into MC3T3-E1 cells, a murine pre-osteoblast cell line. MC3T3-E1 cells are grown in tissue culture plates and the appropriate assay solution containing a standard concentration of ^14C-ascorbic acid plus a competing concentration of ascorbic acid derivative added to each well. The amount of ^14C-ascorbic acid taken up by the cells in 60 min is then measured.
Standard Cell Uptake Assay
Transport buffer: 134 mM NaCl, 5.4 mM KCl, 1.8 mM CaCl2, 0.8 mM MgSO4, 20 mM HEPES, 10 mM glucose, pH7.3, stored at room temperature
Assay buffer: Transport buffer+40 μM […] ^14C-ascorbic acid (Amersham Pharmacia Biotech)
Stock solution: 50 μCi in 50 μl Analar water, stored at −20° C.
Assay solution: 200 nCi ^14C-ascorbic acid in 200 μl assay buffer/well (125 μM)
Stop buffer: 200 μM phloretin in assay buffer, chilled to 4° C.
Lysis solution: 0.1% SDS in Analar water
MC3T3-E1 murine pre-osteoblast cells were seeded in a 24-well plate at 2×10^5 cells/well in 1 ml minimal essential media plus 10% FCS, penicillin and streptomycin. Cells were grown overnight at 37° C., 5% CO2. Assay buffer and solutions were prepared on the morning of the assay. Cells were examined under the microscope for confluence and viability. Growth media was removed using a Liquipippette and each well washed with 2×200 μl assay buffer. The appropriate assay solution was added to each well and the plate incubated at 37° C. for the required time. To stop the reaction, 0.5 ml chilled stop buffer was added to each well. Each well was then washed with 0.5 ml stop buffer. Cells were lysed in 0.1% SDS solution for approximately 10 min and solutions transferred to scintillation vials. Each well was then washed with assay buffer and this wash solution also transferred to the appropriate scintillation vial. Scintillation fluid (5 ml) was added to each vial, the vials vortexed and counted on a Rackbeta counter.

[2] = test system: mineralising nodules of primary rat osteoblasts; test: Autoradiography of mineralised bone nodules produced by cultured rat osteoblasts; format: cell-based; details: 21-day culture period
Method: Foetus heads were collected and sprayed with 70% isopropanol. Calvaria were then removed by cutting the skin from the top of the head, making one incision through the calvaria from the external auditory meatus across behind the parietal bones and a second forward to above the eye sockets. When all the calvaria were isolated, they were rinsed with PBS (Ca^2+ and Mg^2+-free), then incubated in trypsin at 37° C. for 10 minutes. Calvaria were transferred into 0.2% collagenase (type II) in HBSS for 30 minutes at 37° C. This collagenase digestion was repeated for 60 minutes to release the osteoblast populations. Supernatant was removed and spun down to obtain a cell pellet. The pellet was resuspended in media, viable cells counted and plated out into a T75 flask. Once confluent, cells were subcultured into 6-multiwell plates at 2×10^4-2×10^5 cells/well in 3 ml medium containing 1 mM β-glycerophosphate. In addition ascorbic acid (50 μg/ml), ^14C-ascorbic acid (19.6 μCi/ml) or ^14C-compound 7 (2.8 μCi/ml) were incubated with osteoblasts over the culture period. Cells were fed two to three times per week and cultured for up to 21 days. Nodules became macroscopically visible at around 7-10 days and commenced mineralisation (assessed by Alizarin red staining) soon after. […]

[3] = reported in the literature; cited from earlier work

| Structure (SMILES) | IC50 [1] [µM] | Competition [1] | also measured |
| --- | --- | --- | --- |
| O=C1O[C@H]([C@@H](O)CO)C(O)=C1O [Ascorbic acid, ascorbic acid] | 258 | Yes | – |
| O=C1O[C@H]([C@@H](O)COC(=O)c2ccc(I)cc2)C(O)=C1O [Compound 12, 6-O-(4-iodobenzoyl)-L-ascorbic acid] | 384 | Yes | – |
| O=C(/C=C/I)OCC(O)C1OC(=O)C(O)=C1O (stereo not drawn) [Compound 15] | 796 | Yes | – |
| O=C1OC(C(O)CSc2ccccc2)C(O)=C1O (stereo not drawn) [Compound 16] | 1850 | Yes | competition for uptake of ^14C-ascorbic acid into MC3T3-E1 cells (text) [1]: competed; competition for uptake of ^14C-ascorbic acid into MC3T3-E1 cells (text) ([1]; listed as compound 16): very weak |
| O=C1O[C@H]([C@@H](O)CO)C(O)=C1O [^14C-ascorbic acid] | – | – | association with / accumulation in mineralised bone nodules (autoradiography) [2]: associated with the mineralising nodules |
| O=C1O[C@H]([C@@H](O)C[18F])C(O)=C1O [^18F-DFA, 6-deoxy-6-[^18F]fluoro-L-ascorbic acid] | – | – | bone uptake [3]: very low |
